The target in assay [1] is ErbB2 insYVMA (HER2-YVMA, SEQ ID NO: 2) (Homo sapiens, UniProt P04626, INS775YVMA/P1170A). The assay can be described thus: biochemical. The note with it: ErbB2 insYVMA enzyme assay.
Another assay deals with ErbB2 WT (Homo sapiens (Human), UniProt P04626). The assay can be described thus: ErbB enzyme assay (CisBio HTRF KinEASE-TK), Assay 2. Type of assay: biochemical. A digest of the protocol: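 Readout is HTRF KinEASE-TK, using Sa-XL665 and cryptate antibody for 1 h at 22 °C, as percent of control between DMSO-only (100) and pre-quenched (0) reactions. The kinase reaction runs 30 min at 22 °C with 1 mM ATP and 250 nM biotinylated TK substrate, in HEPES pH 7.4 with MgCl2 and 2% DMSO.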
Sequence of ErbB2 WT (P04626 23-1255): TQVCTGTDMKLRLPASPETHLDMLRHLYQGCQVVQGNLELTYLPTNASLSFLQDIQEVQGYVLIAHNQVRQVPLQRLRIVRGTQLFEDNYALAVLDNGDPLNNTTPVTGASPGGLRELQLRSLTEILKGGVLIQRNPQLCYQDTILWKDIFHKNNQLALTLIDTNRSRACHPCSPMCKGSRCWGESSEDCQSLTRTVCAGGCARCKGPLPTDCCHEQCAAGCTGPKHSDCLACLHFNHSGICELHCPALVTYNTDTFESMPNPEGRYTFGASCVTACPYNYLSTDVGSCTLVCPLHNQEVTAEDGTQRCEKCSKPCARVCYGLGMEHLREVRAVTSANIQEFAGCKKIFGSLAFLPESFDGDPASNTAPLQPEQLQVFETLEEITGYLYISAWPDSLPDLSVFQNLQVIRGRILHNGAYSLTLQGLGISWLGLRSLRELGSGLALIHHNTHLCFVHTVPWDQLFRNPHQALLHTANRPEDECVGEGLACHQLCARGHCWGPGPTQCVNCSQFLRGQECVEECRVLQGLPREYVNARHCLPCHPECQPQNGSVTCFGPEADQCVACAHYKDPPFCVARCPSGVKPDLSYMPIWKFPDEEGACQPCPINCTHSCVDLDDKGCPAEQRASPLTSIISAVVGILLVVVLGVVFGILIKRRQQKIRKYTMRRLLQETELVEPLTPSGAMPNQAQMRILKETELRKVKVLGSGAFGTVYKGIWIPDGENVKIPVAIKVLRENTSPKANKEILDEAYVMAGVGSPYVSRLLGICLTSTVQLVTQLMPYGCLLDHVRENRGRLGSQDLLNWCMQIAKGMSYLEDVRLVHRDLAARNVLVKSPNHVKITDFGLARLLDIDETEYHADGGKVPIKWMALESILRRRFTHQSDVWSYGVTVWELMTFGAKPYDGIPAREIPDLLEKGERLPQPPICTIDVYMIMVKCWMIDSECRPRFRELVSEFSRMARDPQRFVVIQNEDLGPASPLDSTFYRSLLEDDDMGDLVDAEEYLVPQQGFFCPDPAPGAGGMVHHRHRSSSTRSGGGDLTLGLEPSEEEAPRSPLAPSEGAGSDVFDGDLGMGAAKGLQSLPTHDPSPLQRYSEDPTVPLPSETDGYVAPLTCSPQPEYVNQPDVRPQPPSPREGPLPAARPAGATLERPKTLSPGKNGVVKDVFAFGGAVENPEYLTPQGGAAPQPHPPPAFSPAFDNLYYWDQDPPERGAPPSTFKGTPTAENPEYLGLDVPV
For orientation: Time-resolved FRET reads energy transfer from a long-lived donor to a nearby acceptor.

Another assay deals with EGFR (Homo sapiens (Human), UniProt P00533). The assay can be described thus: ErbB enzyme assay (CisBio HTRF KinEASE-TK), Assay 3. The format is biochemical. The method, boiled down: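 First, enzyme was reacted with compound, 1 mM ATP and 250 nM biotinylated tyrosine-kinase peptide for 30 min at 22 °C at pH 7.4. Next, streptavidin-XL665 and cryptate antibody were added for 1 h. Finally, HTRF ratios were converted to POC and fitted to yield IC50.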
Sequence of EGFR (P00533 25-1210): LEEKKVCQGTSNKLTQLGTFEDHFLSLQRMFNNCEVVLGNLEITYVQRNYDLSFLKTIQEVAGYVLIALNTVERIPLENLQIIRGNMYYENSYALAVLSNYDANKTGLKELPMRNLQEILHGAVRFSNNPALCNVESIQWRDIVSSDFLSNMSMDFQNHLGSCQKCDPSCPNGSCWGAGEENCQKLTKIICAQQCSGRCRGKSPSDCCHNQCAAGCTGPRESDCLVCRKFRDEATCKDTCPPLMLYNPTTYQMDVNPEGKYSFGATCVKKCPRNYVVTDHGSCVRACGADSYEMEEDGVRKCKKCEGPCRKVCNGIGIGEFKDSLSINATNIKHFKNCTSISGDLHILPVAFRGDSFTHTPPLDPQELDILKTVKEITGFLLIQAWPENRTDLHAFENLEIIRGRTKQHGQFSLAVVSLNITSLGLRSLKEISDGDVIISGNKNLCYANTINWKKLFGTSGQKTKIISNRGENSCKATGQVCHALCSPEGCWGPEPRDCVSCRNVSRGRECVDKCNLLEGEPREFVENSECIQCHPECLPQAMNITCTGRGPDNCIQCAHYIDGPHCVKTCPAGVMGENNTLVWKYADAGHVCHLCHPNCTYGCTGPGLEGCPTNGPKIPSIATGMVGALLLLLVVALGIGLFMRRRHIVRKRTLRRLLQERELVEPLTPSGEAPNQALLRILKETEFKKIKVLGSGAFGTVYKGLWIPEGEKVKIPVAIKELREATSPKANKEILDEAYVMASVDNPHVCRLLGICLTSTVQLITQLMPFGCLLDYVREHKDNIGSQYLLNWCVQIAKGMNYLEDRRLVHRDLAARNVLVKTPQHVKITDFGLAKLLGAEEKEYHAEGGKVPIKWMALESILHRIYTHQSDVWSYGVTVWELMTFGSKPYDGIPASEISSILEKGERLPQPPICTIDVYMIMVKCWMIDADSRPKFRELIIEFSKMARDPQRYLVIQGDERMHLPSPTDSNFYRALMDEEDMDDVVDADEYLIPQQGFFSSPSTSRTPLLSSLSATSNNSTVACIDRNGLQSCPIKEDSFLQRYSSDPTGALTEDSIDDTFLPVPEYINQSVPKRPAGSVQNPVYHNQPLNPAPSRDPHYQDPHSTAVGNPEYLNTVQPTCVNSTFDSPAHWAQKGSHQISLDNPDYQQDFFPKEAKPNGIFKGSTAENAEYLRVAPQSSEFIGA

In assay [2] the target is ErbB2 with Exon 20 YVMA insertion (HER2-YVMA) (Homo sapiens (Human), UniProt P04626, INS775YVMA). Nature of the assay: Cellular phosphorylation assay, constitutive ErbB2 phosphorylation (Y1196) in engineered NIH 3T3 cells, Assay 4. The format is cell-based. The method, boiled down:
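In-cell Western in NIH 3T3 cells carrying ErbB2 exon 20 YVMA insertion, with no ligand stimulation. One hour compound exposure at 37 °C before fixation and anti-pY1196 plus GAPDH staining with dual-wavelength fluorescence. IC50 derived after GAPDH normalization.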

The target in another assay is EGFR wild type (EGFR WT) (Homo sapiens (Human), UniProt P00533). The assay can be described thus: Cellular phosphorylation assay, EGF-stimulated EGFR phosphorylation in engineered NIH 3T3 cells, Phospho-EGFR DuoSet IC ELISA, Assay 5. Type of assay: cell-based. The method, boiled down:
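Phospho-EGFR ELISA on lysates of engineered NIH 3T3 EGFR WT cells, IC50 derived from concentration curves. Cells plated at 20,000/well overnight, given compound dilutions 1 h at 37 °C, then rEGF 100 ng/ml for a further 10 min before lysis.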
Background: ELISA stands for enzyme-linked immunosorbent assay.

Here are results for 28 compounds from patent publication US11834453B2, “Substituted pyrimido[5,4-d]pyrimidines as HER2 inhibitors” (Array BioPharma Inc., priority 2020, dated 2023).

Structures are written as SMILES. Where two headings read alike, the source gives them in different places.

Sequence of ErbB2 insYVMA (HER2-YVMA, SEQ ID NO: 2) (P04626 with tags, fused parts or gaps INS775YVMA/P1170A limits assumed): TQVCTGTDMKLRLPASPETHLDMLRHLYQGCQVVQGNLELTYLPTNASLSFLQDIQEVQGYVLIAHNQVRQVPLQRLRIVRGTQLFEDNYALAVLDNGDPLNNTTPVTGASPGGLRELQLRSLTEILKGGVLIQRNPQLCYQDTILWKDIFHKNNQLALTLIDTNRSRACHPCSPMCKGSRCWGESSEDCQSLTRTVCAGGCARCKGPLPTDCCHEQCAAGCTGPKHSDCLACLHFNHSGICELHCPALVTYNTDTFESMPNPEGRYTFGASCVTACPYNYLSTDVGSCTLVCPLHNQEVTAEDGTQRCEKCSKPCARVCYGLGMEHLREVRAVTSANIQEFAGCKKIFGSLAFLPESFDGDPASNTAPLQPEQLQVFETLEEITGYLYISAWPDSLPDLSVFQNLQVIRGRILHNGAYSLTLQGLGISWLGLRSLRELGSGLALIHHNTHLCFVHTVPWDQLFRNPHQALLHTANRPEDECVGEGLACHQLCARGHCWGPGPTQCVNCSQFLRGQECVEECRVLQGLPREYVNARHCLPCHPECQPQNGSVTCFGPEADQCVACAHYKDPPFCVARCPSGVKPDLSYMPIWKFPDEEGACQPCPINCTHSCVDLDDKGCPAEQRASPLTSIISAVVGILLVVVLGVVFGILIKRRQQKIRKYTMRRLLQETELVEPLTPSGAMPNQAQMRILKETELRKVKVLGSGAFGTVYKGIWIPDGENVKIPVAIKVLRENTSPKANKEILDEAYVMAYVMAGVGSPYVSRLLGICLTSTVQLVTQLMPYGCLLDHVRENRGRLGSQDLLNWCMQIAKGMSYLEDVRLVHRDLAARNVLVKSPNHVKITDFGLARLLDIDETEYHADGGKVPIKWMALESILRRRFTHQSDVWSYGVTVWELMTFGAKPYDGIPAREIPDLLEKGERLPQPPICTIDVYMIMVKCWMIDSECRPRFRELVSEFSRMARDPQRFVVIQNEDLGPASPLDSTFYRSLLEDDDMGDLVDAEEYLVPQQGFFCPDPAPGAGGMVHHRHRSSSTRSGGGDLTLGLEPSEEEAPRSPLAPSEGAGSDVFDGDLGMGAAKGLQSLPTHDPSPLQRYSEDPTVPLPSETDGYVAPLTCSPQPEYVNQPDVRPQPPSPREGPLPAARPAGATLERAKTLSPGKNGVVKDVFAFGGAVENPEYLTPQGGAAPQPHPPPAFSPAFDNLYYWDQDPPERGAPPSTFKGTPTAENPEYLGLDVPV
Sequence of ErbB2 with Exon 20 YVMA insertion (HER2-YVMA) (P04626 other isoform, or with tags, fused parts or gaps ins YVMA behind 775): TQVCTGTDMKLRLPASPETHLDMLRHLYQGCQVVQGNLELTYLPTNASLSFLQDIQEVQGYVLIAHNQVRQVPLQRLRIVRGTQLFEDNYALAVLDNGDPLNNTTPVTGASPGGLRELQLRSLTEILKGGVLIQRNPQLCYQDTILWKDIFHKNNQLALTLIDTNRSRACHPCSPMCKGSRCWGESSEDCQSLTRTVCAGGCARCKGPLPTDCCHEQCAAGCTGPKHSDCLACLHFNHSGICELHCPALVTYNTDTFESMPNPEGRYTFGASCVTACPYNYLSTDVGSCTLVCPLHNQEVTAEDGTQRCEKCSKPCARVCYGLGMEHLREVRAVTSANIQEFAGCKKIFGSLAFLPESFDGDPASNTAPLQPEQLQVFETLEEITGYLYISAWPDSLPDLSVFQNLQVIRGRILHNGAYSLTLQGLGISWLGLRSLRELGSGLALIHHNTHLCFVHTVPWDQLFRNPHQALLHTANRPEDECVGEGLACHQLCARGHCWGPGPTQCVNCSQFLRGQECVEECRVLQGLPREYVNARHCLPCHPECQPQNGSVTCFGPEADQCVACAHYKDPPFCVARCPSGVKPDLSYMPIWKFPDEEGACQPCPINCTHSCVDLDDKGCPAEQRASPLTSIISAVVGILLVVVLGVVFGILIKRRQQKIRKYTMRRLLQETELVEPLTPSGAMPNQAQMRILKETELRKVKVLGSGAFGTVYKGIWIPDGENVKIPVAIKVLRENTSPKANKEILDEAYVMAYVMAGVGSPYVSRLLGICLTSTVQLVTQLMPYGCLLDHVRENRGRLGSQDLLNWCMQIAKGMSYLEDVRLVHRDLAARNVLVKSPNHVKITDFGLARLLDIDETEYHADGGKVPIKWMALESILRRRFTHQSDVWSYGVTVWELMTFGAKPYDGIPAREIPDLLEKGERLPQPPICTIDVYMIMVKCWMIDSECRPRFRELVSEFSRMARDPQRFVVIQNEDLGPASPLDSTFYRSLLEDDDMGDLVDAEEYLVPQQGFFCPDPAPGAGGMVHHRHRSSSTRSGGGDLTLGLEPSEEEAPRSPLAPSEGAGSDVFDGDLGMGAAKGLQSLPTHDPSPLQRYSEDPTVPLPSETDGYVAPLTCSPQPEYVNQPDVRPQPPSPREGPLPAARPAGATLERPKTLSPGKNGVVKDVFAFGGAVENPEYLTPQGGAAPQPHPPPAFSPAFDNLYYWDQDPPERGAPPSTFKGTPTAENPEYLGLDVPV

A word on the IC50: it is the concentration at which inhibition is half-maximal. In the case of `Clc1cc(Nc2ncnc3cnc(N4CC[C@@]45CCOC5)nc23)ccc1Oc1ccn2ncnc2c1` [Example 434], the IC50 in assay [1] (read-out: Assay 1 IC50) was 8.4 nM; on ErbB2 WT, 10.2 nM; on EGFR it was 760 nM; in assay [2], 161 nM; at EGFR wild type (EGFR WT), no less than 5000 nM.
In the case of `CON1CCN(c2ncc3ncnc(Nc4ccc(Oc5ccn6ncnc6c5)c(Cl)c4)c3n2)CC1` [Example 436], the IC50 in assay [1] (read-out: Assay 1 IC50) is 15.4 nM; on ErbB2 WT, 25 nM; against EGFR it was no less than 10000 nM; in assay [2] it was 61.1 nM; against EGFR wild type (EGFR WT), no less than 5000 nM.
The matching figures for `Cc1c(Oc2ccc3c(c2)ncn3C)ccc(Nc2ncnc3cnc(N(C)CC(C)(C)O)nc23)c1F` [Example 438]: 27.4 nM, 47 nM, no less than 10000 nM, 134 nM and no less than 5000 nM.
As for `Cn1cnc2cc(Oc3ccc(Nc4ncnc5cnc(N6C[C@@H]7C[C@H]6CO7)nc45)cc3Cl)ccc21` [Example 440], the half-inhibitory concentration (IC50) in assay [1] (Assay 1 IC50 (nM)) is 48.7 nM; against ErbB2 WT it was 176 nM; against EGFR it was no less than 10000 nM; in assay [2] it was 58.2 nM; against EGFR wild type (EGFR WT), no less than 5000 nM.
Take `Cn1cnc2cc(Oc3ccc(Nc4ncnc5cnc(N6C7CCC6COC7)nc45)cc3Cl)ccc21` [Example 441]: the IC50 is 106 nM in assay [1] (Assay 1 IC50 (nM)); 67.2 nM against ErbB2 WT; 9570 nM at EGFR; 89.1 nM in assay [2]; no less than 5000 nM on EGFR wild type (EGFR WT).
The like results for `Cn1cnc2cc(Oc3ccc(Nc4ncnc5cnc(N6CC7(CCOC7)C6)nc45)cc3Cl)ccc21` [Example 442] were, in that order, 69.5 nM, 180 nM, no less than 10000 nM, 105 nM and no less than 5000 nM.
The matching figures for `Cn1cnc2cc(Oc3ccc(Nc4ncnc5cnc(N6CCC7(CCOC7)C6)nc45)cc3Cl)ccc21` (centres unmarked) [Example 443]: 60.1 nM, 104 nM, no less than 10000 nM, 37.7 nM and no less than 5000 nM.
Take `Cn1cnc2cc(Oc3ccc(Nc4ncnc5cnc(N6CC[C@@H](C#N)C6)nc45)cc3Cl)ccc21` [Example 444]: the IC50 in assay [1] (read-out: Assay 1 IC50) was 24.3 nM; against ErbB2 WT, 52.6 nM; at EGFR it was no less than 10000 nM; in assay [2] it was 41.7 nM; on EGFR wild type (EGFR WT), no less than 5000 nM.
The like results for `Cn1cnc2cc(Oc3ccc(Nc4ncnc5cnc(N6CCN[C@H](C(F)(F)F)C6)nc45)cc3Cl)ccc21` [Example 445] were, in that order, 65 nM, 64.5 nM, 4500 nM, 44.2 nM and no less than 5000 nM.
The matching figures for `Cn1cnc2cc(Oc3ccc(Nc4ncnc5cnc(N6C[C@@H]7CC[C@H]6CO7)nc45)cc3Cl)ccc21` [Example 446]: 20.7 nM, 134 nM, no less than 10000 nM, 123 nM and no less than 5000 nM.
For `Cn1cnc2cc(Oc3ccc(Nc4ncnc5cnc(N6CC7CCC(C6)O7)nc45)cc3Cl)ccc21` [Example 447], the IC50 in assay [1] (Assay 1 IC50 (nM)) was 46.8 nM; against ErbB2 WT, 91 nM; against EGFR, no less than 10000 nM; in assay [2] it was 12.2 nM; against EGFR wild type (EGFR WT), no less than 5000 nM.
As for `Cn1cnc2cc(Oc3ccc(Nc4ncnc5cnc(N6CCOC(C)(C)C6)nc45)cc3Cl)ccc21` [Example 448], the IC50 in assay [1] (read-out: Assay 1 IC50) was 75.9 nM; on ErbB2 WT, 143 nM; against EGFR, no less than 10000 nM; in assay [2], 40.8 nM; against EGFR wild type (EGFR WT), no less than 5000 nM.
The matching figures for `Cn1cnc2cc(Oc3ccc(Nc4ncnc5cnc(N6CCOC7(CC7)C6)nc45)cc3Cl)ccc21` [Example 449]: 157 nM, 152 nM, no less than 10000 nM, 6.2 nM and no less than 5000 nM.
Regarding `C[C@H]1CN(c2ncc3ncnc(Nc4ccc(Oc5ccc6c(c5)ncn6C)c(Cl)c4)c3n2)CCO1` [Example 450], the IC50 in assay [1] (read-out: Assay 1 IC50) was 26.1 nM; on ErbB2 WT, 55 nM; against EGFR, 4010 nM; in assay [2] it was 13.4 nM; against EGFR wild type (EGFR WT), no less than 5000 nM.
`Cn1cnc2cc(Oc3ccc(Nc4ncnc5cnc(N6C[C@H]7CC[C@@H]6CO7)nc45)cc3Cl)ccc21` [Example 451]: the IC50 is 42.7 nM in assay [1] (Assay 1 IC50 (nM)); 63.8 nM against ErbB2 WT; 3500 nM against EGFR; 24.7 nM in assay [2]; no less than 5000 nM against EGFR wild type (EGFR WT).
Take `C[C@@H]1CN(c2ncc3ncnc(Nc4ccc(Oc5ccc6c(c5)ncn6C)c(Cl)c4)c3n2)CCO1` [Example 452]: the IC50 is 47.6 nM in assay [1] (read-out: Assay 1 IC50); 115 nM against ErbB2 WT; no less than 10000 nM at EGFR; 20.2 nM in assay [2]; no less than 5000 nM at EGFR wild type (EGFR WT).
In the case of `Cc1c(Oc2ccc3c(c2)ncn3C)ccc(Nc2ncnc3cnc(N4CC[C@H]4C(C)(C)O)nc23)c1F` [Example 453], the IC50 in assay [1] (read-out: Assay 1 IC50) is 64.6 nM; against ErbB2 WT it was 474 nM; on EGFR, no less than 10000 nM; in assay [2], 383 nM; against EGFR wild type (EGFR WT), no less than 5000 nM.
Take `Cn1cnc2cc(Oc3ccc(Nc4ncnc5cnc(N6C[C@H]7C[C@@H]6CO7)nc45)cc3Cl)ccc21` [Example 455]: the IC50 in assay [1] (read-out: Assay 1 IC50) was 48.7 nM; on ErbB2 WT, 176 nM; against EGFR it was no less than 10000 nM; in assay [2] it was 58.2 nM; against EGFR wild type (EGFR WT) it was no less than 5000 nM.
The like results for `CN(CC(C)(C)O)c1ncc2ncnc(Nc3ccc(Oc4ccc5c(c4)ncn5C)c(Cl)c3)c2n1` [Example 456] were, in that order, 25.9 nM, 69.8 nM, 4520 nM, 47.6 nM and no less than 5000 nM.
The like results for `Cc1c(Oc2ccc3c(c2)ncn3C)ccc(Nc2ncnc3cnc(N4C[C@H]5C[C@@H]4CO5)nc23)c1F` [Example 457] were, in that order, 25.1 nM, 83.9 nM, 8240 nM, 50.6 nM and no less than 5000 nM.
The like results for `Cc1c(Oc2ccc3c(c2)ncn3C)ccc(Nc2ncnc3cnc(N4CC[C@H](O)C4)nc23)c1F` [Example 458] were, in that order, 13.3 nM, 28 nM, 1630 nM, 75.2 nM and no less than 5000 nM.
Consider `Cc1cc(Nc2ncnc3cnc(N4C[C@H]5C[C@@H]4C[C@H]5O)nc23)ccc1Oc1ccc2c(c1)ncn2C` [Example 459], for which the IC50 was 18.7 nM in assay [1] (read-out: Assay 1 IC50); 36.6 nM at ErbB2 WT; no less than 10000 nM against EGFR; 45.1 nM in assay [2]; no less than 5000 nM at EGFR wild type (EGFR WT).
The like results for `Cc1cc(Nc2ncnc3cnc(N4CCC(F)(F)[C@@H](O)C4)nc23)ccc1Oc1ccc2c(c1)ncn2C` [Example 460] were, in that order, 59.1 nM, 89.7 nM, no less than 10000 nM, 88 nM and no less than 5000 nM.
The matching figures for `Cc1cc(Nc2ncnc3cnc(N4CCC[C@](C)(O)C4)nc23)ccc1Oc1ccc2c(c1)ncn2C` [Example 461]: 20.5 nM, 31.9 nM, no less than 10000 nM, 46.5 nM and no less than 5000 nM.
The matching figures for `Cc1cc(Nc2ncnc3cnc(N4CC5CCOC5C4)nc23)ccc1Oc1ccc2c(c1)ncn2C` (centres unmarked) [Example 462]: 20.3 nM, 41.5 nM, no less than 10000 nM, 18.6 nM and no less than 5000 nM.
With `Cc1cc(Nc2ncnc3cnc(N4CCP(C)(=O)CC4)nc23)ccc1Oc1ccc2c(c1)ncn2C` [Example 463], the IC50 in assay [1] (read-out: Assay 1 IC50) was 71.3 nM; against ErbB2 WT, 275 nM; on EGFR it was no less than 10000 nM; in assay [2], 662 nM; against EGFR wild type (EGFR WT), no less than 5000 nM.
With `Cc1cc(Nc2ncnc3cnc(N4CC5CC(C4)C5O)nc23)ccc1Oc1ccc2c(c1)ncn2C` (centres unmarked) [Example 464], the IC50 in assay [1] (Assay 1 IC50 (nM)) is 9.4 nM; against ErbB2 WT it was 60.2 nM; at EGFR it was no less than 10000 nM; in assay [2] it was 83.1 nM; against EGFR wild type (EGFR WT) it was no less than 5000 nM.
In the case of `Cc1cc(Nc2ncnc3cnc(N4CC5(CCC5O)C4)nc23)ccc1Oc1ccc2c(c1)ncn2C` (centres unmarked) [Example 465], the IC50 in assay [1] (read-out: Assay 1 IC50) was 44.3 nM; on ErbB2 WT it was 47.6 nM; against EGFR, no less than 10000 nM; in assay [2], 67.8 nM; on EGFR wild type (EGFR WT) it was no less than 5000 nM.
